These results are taken from ChEMBL document CHEMBL3639115, “Benzimidazole inhibitors of leukotriene production” (2014).

This assay deals with T1, Arachidonate 5-lipoxygenase-activating protein (Homo sapiens, UniProt P20292).
T1 sequence (P20292 whole entry): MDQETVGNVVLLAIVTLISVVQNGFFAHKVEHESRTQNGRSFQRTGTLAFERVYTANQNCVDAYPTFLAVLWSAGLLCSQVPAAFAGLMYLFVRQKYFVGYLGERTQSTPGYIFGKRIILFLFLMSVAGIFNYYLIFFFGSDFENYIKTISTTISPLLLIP
Kind of assay: Scintillation Proximity Assay: Compounds are assessed for the ability to bind to FLAP in a binding assay that measures compound-specific displacement of an iodinated (125I) FLAP inhibitor via a Scintillation Proximity Assay format (adapted from S. Charleson et al., Mol. Pharmacol., 1992, 41, 873-879).Cell pellets produced from sf9 insect cells expressing recombinant human FLAP protein are resuspended in buffer A [15 mM Tris-HCl (pH 7.5), 2 mM MgCl2, 0.3 mM EDTA, 1 mM PMSF]. The cells are lysed with a Dounce homogenizer and the material is centrifuged at 10,000xg for 10 minutes. The supernatant is then collected and centrifuged at 100,000xg for 60 minutes. To prepare membrane protein for an assay, an aliquot of the 100,000xg pellet is resuspended in 1 ml of buffer A, Dounce homogenized, and finally subjected to polytron mixing (30 seconds). Membrane protein (25 ul, 5 ug) is mixed with WGA SPA beads (Amersham) and stirred for 1 h. To an assay plate (Perkin Elmer FlexiPlate) is added 25 ul of test compound. In general terms: Scintillation proximity formats need no separation of bound from free tracer.

As to `CC(C)(C)n1c(-c2ccccc2C(N)=O)nc2cc(-c3cnc(N)nc3)ccc21`, the IC50 (commonly the concentration that gives 50% inhibition) is 35.4 nM.
